Patent US20250340552A1, “COMPOUNDS, COMPOSITIONS AND METHODS OF TREATING DISORDERS” (HOTSPOT THERAPEUTICS, INC., priority 2022, published 2025)
Where two headings read alike, the source gives them in different places.

Target: T1, Cbl-B (Homo sapiens, UniProt Q13191)
T1 construct: MSD-Based Assay for Degradation of Cbl-B in THP-1 Cells; endogenous in cells; host or cells: THP-1 (title) / Jurkat (protocol text)
Test: MSD-based assay for degradation of Cbl-B in THP-1 cells
Assay type: cell-based
Summary of the method: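 Reported Dmax bins are A >70%, B 50–70%, C 30–50% and D <30%, from an electrochemiluminescence (MSD) sandwich assay of Cbl-B in cell lysates. THP-1 cells were exposed to compounds for 24 hours before lysis.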

[1] = Cbl-B degradation, Jurkat cells seeded (heading: THP-1 cells), 24 hours incubation, MSD readout
[2] = Cbl-B degradation, Jurkat cells seeded (heading: THP-1 cells), 24 hours incubation, MSD readout, read-out: Dmax

T1 sequence (Q13191 whole entry): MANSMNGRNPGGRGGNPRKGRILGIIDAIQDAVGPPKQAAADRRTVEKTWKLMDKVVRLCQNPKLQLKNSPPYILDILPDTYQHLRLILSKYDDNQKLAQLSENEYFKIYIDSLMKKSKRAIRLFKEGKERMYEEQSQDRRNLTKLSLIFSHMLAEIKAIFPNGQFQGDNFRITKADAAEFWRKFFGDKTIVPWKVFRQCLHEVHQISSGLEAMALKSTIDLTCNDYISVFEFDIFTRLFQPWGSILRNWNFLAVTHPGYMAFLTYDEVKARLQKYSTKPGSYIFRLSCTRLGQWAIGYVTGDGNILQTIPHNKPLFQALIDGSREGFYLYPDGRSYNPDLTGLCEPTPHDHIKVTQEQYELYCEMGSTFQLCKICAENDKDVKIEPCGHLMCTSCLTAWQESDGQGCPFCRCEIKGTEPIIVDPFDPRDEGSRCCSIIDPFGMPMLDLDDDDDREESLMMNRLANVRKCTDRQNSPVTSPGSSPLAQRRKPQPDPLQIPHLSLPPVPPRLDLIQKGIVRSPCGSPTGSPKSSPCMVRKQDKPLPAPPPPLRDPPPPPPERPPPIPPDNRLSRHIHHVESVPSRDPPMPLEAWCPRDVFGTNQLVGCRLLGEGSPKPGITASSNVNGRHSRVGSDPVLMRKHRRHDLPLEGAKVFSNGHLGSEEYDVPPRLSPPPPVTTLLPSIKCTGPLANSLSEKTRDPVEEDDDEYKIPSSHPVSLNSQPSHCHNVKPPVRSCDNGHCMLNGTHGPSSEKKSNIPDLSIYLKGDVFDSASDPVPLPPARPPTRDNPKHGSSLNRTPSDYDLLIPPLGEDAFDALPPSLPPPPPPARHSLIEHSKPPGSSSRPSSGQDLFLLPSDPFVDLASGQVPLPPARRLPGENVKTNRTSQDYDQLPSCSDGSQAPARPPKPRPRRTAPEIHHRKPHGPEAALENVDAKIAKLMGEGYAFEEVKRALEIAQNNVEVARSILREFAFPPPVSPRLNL

DC50 [1]	Dmax [2]	Structure (SMILES)	Dmax (THP-1)
< 30 nM	> 70%	Cn1cnnc1[C@@H](c1cccc(-n2cc3c(C(F)(F)F)cc(CN4CCC(C5CCN(C(=O)c6ccc(N7CCN(c8ccc9c(c8)CN([C@H]8CCC(=O)NC8=O)C9=O)CC7)cc6)CC5)CC4)cn3c2=O)c1)C1CCC1 (single isomer, unassigned) [Compound 162]	
< 30 nM	> 70%	Cn1cnnc1[C@@H](c1cccc(-n2cc3c(C(F)(F)F)cc(CN4CCC[C@@H](OC5CCN(C(=O)c6ccc(N7CCN(c8ccc9c(c8)CN([C@H]8CCC(=O)NC8=O)C9=O)CC7)cc6)CC5)C4)cn3c2=O)c1)C1CCC1 (single isomer, unassigned) [Compound 172]	
< 30 nM	> 70%	Cn1cnnc1[C@@H](c1cccc(-n2cc3c(C(F)(F)F)cc(CN4CCC(CC(=O)N5CCC(C6CCN(c7ccc8c(c7)CN([C@H]7CCC(=O)NC7=O)C8=O)CC6)CC5)CC4)cn3c2=O)c1)C1CCC1 (single isomer, unassigned) [Compound 178]	
< 30 nM	> 70%	CN(CCC1CCN(Cc2cc(C(F)(F)F)c3cn(-c4cccc([C@H](c5nncn5C)C5CCC5)c4)c(=O)n3c2)CC1)C(=O)c1ccc(N2CCN(c3ccc4c(c3)CN([C@H]3CCC(=O)NC3=O)C4=O)CC2)cc1 (single isomer, unassigned) [Compound 186]	
> 10000 nM		Cn1cnnc1[C@@H](c1cccc(-n2cc3c(C(F)(F)F)cc(CN4CCC[C@H](OCc5ccc(CC6CCN(c7ccc8c(c7)CN([C@@H]7CCC(=O)NC7=O)C8=O)CC6)cc5)C4)cn3c2=O)c1)C1CCC1 (single isomer, unassigned) [Compound 187]	
300 to 1000 nM		Cn1cnnc1[C@@H](c1cccc(-n2cc3c(C(F)(F)F)cc(CN4CCC[C@H](OCc5ccc(CC6CCN(c7ccc8c(c7)CN([C@H]7CCC(=O)NC7=O)C8=O)CC6)cc5)C4)cn3c2=O)c1)C1CCC1 (single isomer, unassigned) [Compound 188]	
1000 to 10000 nM		Cn1cnnc1[C@@H](c1cccc(-n2cc3c(C(F)(F)F)cc(CN4CCC[C@@H](OCc5ccc(CC6CCN(c7ccc8c(c7)CN([C@H]7CCC(=O)NC7=O)C8=O)CC6)cc5)C4)cn3c2=O)c1)C1CCC1 (single isomer, unassigned) [Compound 192]	
> 10000 nM	< 30%	Cn1cnnc1[C@@H](c1cccc(N2Cc3c(cc(CN4CCC[C@@H](OCc5ccc(CC6CCN(c7ccc8c(c7)CN([C@@H]7CCC(=O)NC7=O)C8=O)CC6)cc5)C4)cc3C(F)(F)F)C2=O)c1)C1CCC1 (single isomer, unassigned) [Compound 193]	
30 to 300 nM	30 to 50%	Cn1cnnc1[C@@H](c1cccc(N2Cc3c(cc(CN4CCC[C@@H](OCc5ccc(CC6CCN(c7ccc8c(c7)CN([C@H]7CCC(=O)NC7=O)C8=O)CC6)cc5)C4)cc3C(F)(F)F)C2=O)c1)C1CCC1 (single isomer, unassigned) [Compound 194]	
< 30 nM	> 70%	Cn1cnnc1[C@@H](c1cccc(-n2cc3c(C(F)(F)F)cc(CN4CCC[C@H](OC5CCN(C(=O)c6ccc(N7CCN(c8ccc9c(c8)CN([C@H]8CCC(=O)NC8=O)C9=O)CC7)cc6)CC5)C4)cn3c2=O)c1)C1CCC1 (single isomer, unassigned) [Compound 196]	
> 10000 nM	< 30%	CN(CCN(C)C(=O)c1cc(C(F)(F)F)c2cn(-c3cccc([C@H](c4nncn4C)C4CCC4)c3)c(=O)n2c1)C(=O)c1ccc(C2CCN(c3ccc4c(c3)CN([C@@H]3CCC(=O)NC3=O)C4=O)CC2)cc1 (single isomer, unassigned) [Compound 197]	
> 10000 nM	< 30%	CN(CCN(C)C(=O)c1cc(C(F)(F)F)c2cn(-c3cccc([C@H](c4nncn4C)C4CCC4)c3)c(=O)n2c1)C(=O)c1ccc(C2CCN(c3ccc4c(c3)CN([C@H]3CCC(=O)NC3=O)C4=O)CC2)cc1 (single isomer, unassigned) [Compound 198]	
30 to 300 nM	30 to 50%	CN(CC1CCN(Cc2cc(C(F)(F)F)c3cn(-c4cccc([C@H](c5nncn5C)C5CCC5)c4)c(=O)n3c2)CC1)C(=O)c1ccc(C2CCN(c3ccc4c(c3)CN([C@@H]3CCC(=O)NC3=O)C4=O)CC2)cc1 (single isomer, unassigned) [Compound 199]	
< 30 nM	> 70%	CN(CC1CCN(Cc2cc(C(F)(F)F)c3cn(-c4cccc([C@H](c5nncn5C)C5CCC5)c4)c(=O)n3c2)CC1)C(=O)c1ccc(C2CCN(c3ccc4c(c3)CN([C@H]3CCC(=O)NC3=O)C4=O)CC2)cc1 (single isomer, unassigned) [Compound 200]	
30 to 300 nM	30 to 50%	Cn1cnnc1[C@@H](c1cccc(-n2cc3c(C(F)(F)F)cc(CN4CCN(C(=O)Cc5ccc(C6CCN(c7ccc8c(c7)CN([C@@H]7CCC(=O)NC7=O)C8=O)CC6)cc5)CC4)cn3c2=O)c1)C1CCC1 (single isomer, unassigned) [Compound 201]	
< 30 nM	> 70%	Cn1cnnc1[C@@H](c1cccc(-n2cc3c(C(F)(F)F)cc(CN4CCN(C(=O)Cc5ccc(C6CCN(c7ccc8c(c7)CN([C@H]7CCC(=O)NC7=O)C8=O)CC6)cc5)CC4)cn3c2=O)c1)C1CCC1 (single isomer, unassigned) [Compound 202]	
30 to 300 nM	30 to 50%	Cn1cnnc1CC1(c2cccc(-n3cc4c(C(F)(F)F)cc(CN5CCC(OCc6ccc(C7CCN(c8ccc9c(c8)CN([C@@H]8CCC(=O)NC8=O)C9=O)CC7)cc6)CC5)cn4c3=O)c2)COC1 (single isomer, unassigned) [Compound 205]	
30 to 300 nM	50 to 70%	Cn1cnnc1CC1(c2cccc(-n3cc4c(C(F)(F)F)cc(CN5CCC(OCc6ccc(C7CCN(c8ccc9c(c8)CN([C@H]8CCC(=O)NC8=O)C9=O)CC7)cc6)CC5)cn4c3=O)c2)COC1 (single isomer, unassigned) [Compound 206]	
> 10000 nM	< 30%	Cn1cnnc1[C@@H](c1cccc(-n2cc3c(C(F)(F)F)cc(CN4CCC(OCc5cccc(CN6CCN(c7ccc8c(c7)CN([C@@H]7CCC(=O)NC7=O)C8=O)CC6)c5)CC4)cn3c2=O)c1)C1CCC1 (single isomer, unassigned) [Compound 207]	
> 10000 nM	< 30%	Cn1cnnc1[C@@H](c1cccc(-n2cc3c(C(F)(F)F)cc(CN4CCC(OCc5cccc(CN6CCN(c7ccc8c(c7)CN([C@H]7CCC(=O)NC7=O)C8=O)CC6)c5)CC4)cn3c2=O)c1)C1CCC1 (single isomer, unassigned) [Compound 208]	
1000 to 10000 nM	< 30%	Cn1cnnc1[C@@H](c1cccc(-n2cc3c(C(F)(F)F)cc(CN4CCN(c5ccc(C(=O)N6CCC(C7CCN(c8ccc9c(c8)CN([C@@H]8CCC(=O)NC8=O)C9=O)CC7)CC6)cc5)CC4)cn3c2=O)c1)C1CCC1 (single isomer, unassigned) [Compound 209]	
< 30 nM	> 70%	Cn1cnnc1[C@@H](c1cccc(-n2cc3c(C(F)(F)F)cc(CN4CCN(c5ccc(C(=O)N6CCC(C7CCN(c8ccc9c(c8)CN([C@H]8CCC(=O)NC8=O)C9=O)CC7)CC6)cc5)CC4)cn3c2=O)c1)C1CCC1 (single isomer, unassigned) [Compound 210]	
> 10000 nM	< 30%	CN(CCN(C)C(=O)c1ccc(C2CCN(c3ccc4c(c3)CN([C@@H]3CCC(=O)NC3=O)C4=O)CC2)cc1)Cc1cc(C(F)(F)F)c2cn(-c3cccc([C@H](c4nncn4C)C4CCC4)c3)c(=O)n2c1 (single isomer, unassigned) [Compound 211]	

Structure (SMILES)	DC50 [1]	Dmax [2]	Dmax (THP-1)
Cn1cnnc1[C@@H](c1cccc(-n2cc3c(C(F)(F)F)cc(CN4CCC[C@@H](OC5CCN(C(=O)c6ccc(N7CCN(c8ccc9c(c8)CN([C@@H]8CCC(=O)NC8=O)C9=O)CC7)cc6)CC5)C4)cn3c2=O)c1)C1CCC1 (single isomer, unassigned) [Compound 171]	< 30 nM	50 to 70%	
Cn1cnnc1[C@@H](c1cccc(-n2cc3c(C(F)(F)F)cc(CN4CCC(OCCOCc5ccc(CC6CCN(c7ccc8c(c7)CN([C@@H]7CCC(=O)NC7=O)C8=O)CC6)cc5)CC4)cn3c2=O)c1)C1CCC1 (single isomer, unassigned) [Compound 173]	1000 to 10000 nM		30 to 50%
Cn1cnnc1[C@@H](c1cccc(-n2cc3c(C(F)(F)F)cc(CN4CCC(OCCOCc5ccc(CC6CCN(c7ccc8c(c7)CN([C@H]7CCC(=O)NC7=O)C8=O)CC6)cc5)CC4)cn3c2=O)c1)C1CCC1 (single isomer, unassigned) [Compound 174]	< 30 nM	> 70%	
Cn1cnnc1[C@@H](c1cccc(-n2cc3c(C(F)(F)F)cc(CN4CCC(CC(=O)N5CCC(C6CCN(c7ccc8c(c7)CN([C@@H]7CCC(=O)NC7=O)C8=O)CC6)CC5)CC4)cn3c2=O)c1)C1CCC1 (single isomer, unassigned) [Compound 177]	300 to 1000 nM	30 to 50%	
CN(CCC1CCN(Cc2cc(C(F)(F)F)c3cn(-c4cccc([C@H](c5nncn5C)C5CCC5)c4)c(=O)n3c2)CC1)C(=O)c1ccc(N2CCN(c3ccc4c(c3)CN([C@@H]3CCC(=O)NC3=O)C4=O)CC2)cc1 (single isomer, unassigned) [Compound 185]	30 to 300 nM	50 to 70%	
Cn1cnnc1[C@@H](c1cccc(N2Cc3c(cc(CN4CCC[C@H](OCc5ccc(CC6CCN(c7ccc8c(c7)CN([C@@H]7CCC(=O)NC7=O)C8=O)CC6)cc5)C4)cc3C(F)(F)F)C2=O)c1)C1CCC1 (single isomer, unassigned) [Compound 189]	> 10000 nM	< 30%	
Cn1cnnc1[C@@H](c1cccc(-n2cc3c(C(F)(F)F)cc(CN4CCC[C@H](OC5CCN(C(=O)c6ccc(N7CCN(c8ccc9c(c8)CN([C@@H]8CCC(=O)NC8=O)C9=O)CC7)cc6)CC5)C4)cn3c2=O)c1)C1CCC1 (single isomer, unassigned) [Compound 195]	30 to 300 nM	50 to 70%	
